{"source": "patent US20100285032A1", "about": "“ESTROGEN RECEPTOR-RELATED RECEPTOR GAMMA (ERR GAMMA) IN BONE AND CARTILAGE FORMATION AND METHODS AND COMPOSITIONS RELATING TO SAME” (priority 2007, published 2010)", "key": {"[1]": {"target": "T1, ERRγ (Homo sapiens, UniProt P62508)", "T1 sequence (P62508 1-458)": "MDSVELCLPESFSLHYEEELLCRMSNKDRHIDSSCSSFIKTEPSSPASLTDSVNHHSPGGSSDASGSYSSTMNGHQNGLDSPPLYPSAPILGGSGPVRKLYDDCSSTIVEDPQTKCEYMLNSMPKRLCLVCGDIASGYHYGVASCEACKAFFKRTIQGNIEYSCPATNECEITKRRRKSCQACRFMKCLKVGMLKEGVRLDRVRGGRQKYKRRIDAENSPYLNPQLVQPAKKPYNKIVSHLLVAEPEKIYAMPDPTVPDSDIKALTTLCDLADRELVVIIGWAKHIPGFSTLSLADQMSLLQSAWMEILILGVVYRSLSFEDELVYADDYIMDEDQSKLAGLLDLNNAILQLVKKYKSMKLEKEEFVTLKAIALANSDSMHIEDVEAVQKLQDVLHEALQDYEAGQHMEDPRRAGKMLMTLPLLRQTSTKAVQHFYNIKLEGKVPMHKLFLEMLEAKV", "conditions": "cited from earlier work"}, "[2]": {"tested_on": "ERRs", "conditions": "cited from earlier work"}, "[3]": {"tested_on": "C5.18 cells", "test": "Cartilage nodule formation in C5.18 cell cultures after oligonucleotide treatment", "assay_type": "cell-based, rat", "conditions": "C5.18 cultures, treated during differentiation phase", "experimental": "(§1) Cells were isolated from 21-day-old fetal Wistar rat or neonatal mouse calvariae or were the chondrogenic C5.18 cell line and were grown for osteogenic or chondrogenic differentiation as described previously (Bonnelye et al., 2001; Bonnelye et al., 2007). Medium was replaced every second day and cells were cultured at 37° C. in a 5% CO2 humidified atmosphere for 15-20 days until mineralized bone nodules or cartilage nodules had formed in control cultures.\n(§2) Rat calvarial cells were plated into 24 well plates at 10^4 cells/well. Antisense oligonucleotide inhibition of ERRγ expression was accomplished with a 20-base phosphorothioate-modified oligonucleotide. Control dishes were treated with the complementary sense oligonucleotide or no oligonucleotide. Briefly, oligonucleotide concentrations that have been found previously not to be toxic (0.5 μM to 2 μM) were added directly to cells during the proliferation (day 1-5) or differentiation phase (day 5 (end of proliferation) to 11) in standard medium as above supplemented with 50 μg/ml ascorbic acid, 10 mM sodium β-glycerophosphate. Medium was changed every 2 days and fresh oligonucleotides were added at each change. At day 15, cultures were terminated and stained for alkaline phosphatase according to previous protocols (Bonnelye et al., 2001)."}, "[4]": {"tested_on": "rat calvaria (RC) cells", "test": "Bone nodule formation in rat calvaria (RC) cell cultures after oligonucleotide treatment", "assay_type": "cell-based", "experimental": "as §1, §2"}, "[5]": {"target": "T2, ERRα (Homo sapiens, UniProt P11474)", "T2 construct": "host or cells: yeast", "T2 sequence (P11474 1-423)": "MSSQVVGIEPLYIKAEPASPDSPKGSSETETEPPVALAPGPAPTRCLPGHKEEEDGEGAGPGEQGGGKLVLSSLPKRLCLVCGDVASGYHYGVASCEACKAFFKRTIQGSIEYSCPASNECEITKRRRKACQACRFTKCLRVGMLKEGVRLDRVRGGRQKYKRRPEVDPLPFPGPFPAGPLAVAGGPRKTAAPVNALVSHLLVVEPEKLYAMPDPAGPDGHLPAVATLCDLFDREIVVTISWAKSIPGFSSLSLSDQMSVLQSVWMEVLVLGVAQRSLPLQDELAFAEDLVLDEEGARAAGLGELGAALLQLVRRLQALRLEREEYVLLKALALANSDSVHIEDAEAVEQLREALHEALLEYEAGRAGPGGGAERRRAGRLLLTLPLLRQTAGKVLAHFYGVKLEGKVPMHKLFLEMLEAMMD", "conditions": "yeast-based and mammalian transient transfection assays; cited from earlier work"}, "[6]": {"tested_on": "PGC-1/ERRα", "conditions": "cited from earlier work"}}, "data": [{"compound": "CN(C)CCOc1ccc(/C(=C(/CCCl)c2ccccc2)c2ccc(O)cc2)cc1", "note": "[4-hydroxytoremifene]", "values": [{"measurement": "activity on ERRγ (agonist/antagonist)", "setting": "[1]", "result": "antagonize ERRγ"}]}, {"compound": "CC/C(=C(/CC)c1ccc(O)cc1)c1ccc(O)cc1", "note": "[diethylstilbestrol]", "values": [{"measurement": "activity on ERRs (agonist/antagonist)", "setting": "[2]", "result": "antagonists of ERRs"}]}, {"compound": "COc1ccc(-c2coc3cc(O)cc(O)c3c2=O)cc1", "note": "[biochanin A]", "values": [{"measurement": "activity on ERRs (agonist/antagonist)", "setting": "[2]", "result": "agonists of ERRs"}]}, {"compound": "ggtGGTTGACGCTGTCCGTCagg (antisense GGTGGTTGACGCTGTCCGTCAGG; all phosphorothioate, sugars by position and methylation of C not given here) [antisense oligonucleotide]", "values": [{"measurement": "cartilage nodule formation", "setting": "[3]", "result": "tended to increase"}, {"measurement": "bone nodule formation", "setting": "[4]; RC cultures, treated during differentiation phase (day 5 to 11)", "result": "significantly increased"}, {"measurement": "bone nodule formation", "setting": "[4]; RC cultures, treated during proliferation phase (day 1-5)", "result": "significantly increased"}, {"measurement": "bone nodule formation", "setting": "[4]; rat calvaria osteoblastic cells, treatment phase not stated", "result": "increases bone nodule formation"}]}, {"compound": "ClC1=C(Cl)C2(Cl)C3C(Cl)C(Cl)CC3C1(Cl)C2(Cl)Cl", "note": "(stereo not shown) [chlordane]", "values": [{"measurement": "effect on constitutive activity of ERRα", "setting": "[5]", "result": "suppress the constitutive activity of ERRα"}]}, {"compound": "O=c1cc(-c2ccc(O)c(O)c2)oc2ccc(O)cc12", "note": "[6,3′,4′-trihydroxyflavone]", "values": [{"measurement": "activity on ERRs (agonist/antagonist)", "setting": "[2]", "result": "agonists of ERRs"}]}, {"compound": "CC1(C)C(C(Cl)Cl)C2(Cl)C(Cl)C(Cl)C1(Cl)C2(Cl)Cl", "note": "(stereo not shown) [toxaphene]", "values": [{"measurement": "effect on constitutive activity of ERRα", "setting": "[5]", "result": "suppress the constitutive activity of ERRα"}]}, {"compound": "4-hydroxytamoxifen", "values": [{"measurement": "activity on ERRγ (agonist/antagonist)", "setting": "[1]", "result": "antagonize ERRγ"}, {"measurement": "activity on ERRs (agonist/antagonist)", "setting": "[2]", "result": "antagonists of ERRs"}]}, {"compound": "O=c1c(-c2ccc(O)cc2)coc2cc(O)cc(O)c12", "note": "[genistein]", "values": [{"measurement": "activity on ERRs (agonist/antagonist)", "setting": "[2]", "result": "agonists of ERRs"}]}, {"compound": "CC(C)c1ccc(/C=N/NC(=O)c2ccc(O)cc2)cc1", "note": "[GSK4716]", "values": [{"measurement": "activity on ERRγ (agonist/antagonist)", "setting": "[1]", "result": "agonists of ERRγ"}]}, {"compound": "COc1cc(/C=C(\\C#N)C(=O)Nc2nnc(C(F)(F)F)s2)ccc1OCc1ccc(C(F)(F)F)cc1C(F)(F)F", "note": "[XCT790]", "values": [{"measurement": "activity on PGC-1/ERRα dependent signaling", "setting": "[6]", "result": "inverse agonists"}]}, {"compound": "O=c1c(-c2ccc(O)cc2)coc2cc(O)ccc12", "note": "[daidzein]", "values": [{"measurement": "activity on ERRs (agonist/antagonist)", "setting": "[2]", "result": "agonists of ERRs"}]}]}
